{
  "source": "patent US10407428B2",
  "about": "“Spiro-isoquinoline-1,4′-piperidine compounds having multimodal activity against pain” (ESTEVE PHARMACEUTICALS, S.A., priority 2014, dated 2019)",
  "data": [
    {"system": "human σ1 receptor and human μ-opioid receptor", "test": "Human σ1 receptor radioligand assay and human μ-opioid receptor radioligand assay (μ and σ1 dual binding)", "set-up": "key to μ and σ1 dual binding: +: Both Ki-μ and Ki-σ1>=500 nM; ++: One Ki<500 nM while the other Ki is >=500 nM; +++: Both Ki-μ and Ki-σ1<500 nM; ++++: Both Ki-μ and Ki-σ1<100 nM", "conditions": "not given", "units": {"Ki": "nM"}, "values": [
      {"smiles": "CC(=O)N1CCc2ccccc2C12CCN(CC1CCOCC1)CC2", "note": "[Example 9, 1-(1′-((tetrahydro-2H-pyran-4-yl)methyl)-3,4-dihydro-2H-spiro[isoquinoline-1,4'-piperidine]-2-yl)ethanone]", "μ and σ1 dual binding": "++"},
      {"smiles": "CC(=O)N1CCc2ccccc2C12CCN(CCOC(C)C)CC2", "note": "[Example 11, 1-(1′-(2-isopropoxyethyl)-3,4-dihydro-2H-spiro[isoquinoline-1,4′-piperidine]-2-yl)ethanone]", "Ki": "< 500"},
      {"smiles": "CC(=O)N1CCc2ccccc2C12CCN(CC(C)C)CC2", "note": "[Example 12, 1-(1′-isobutyl-3,4-dihydro-2H-spiro[isoquinoline-1,4′-piperidine]-2-yl)ethanone]", "μ and σ1 dual binding": "++"},
      {"smiles": "CC(=O)N1CCc2ccccc2C12CCN(CC1CCCCC1)CC2", "note": "[Example 13, 1-(1′-(cyclohexylmethyl)-3,4-dihydro-2H-spiro[isoquinoline-1,4′-piperidine]-2-yl)ethanone]", "Ki": "< 500"},
      {"smiles": "CC(=O)N1CCc2ccccc2C12CCN(CCC(C)C)CC2", "note": "[Example 15, 1-(1′-isopentyl-3,4-dihydro-2H-spiro[isoquinoline-1,4′-piperidine]-2-yl)ethanone]", "Ki": "< 500"},
      {"smiles": "CC(=O)N1CCc2ccccc2C12CCN(Cc1ccccn1)CC2", "note": "[Example 17, 1-(1′-(pyridin-2-ylmethyl)-3,4-dihydro-2H-spiro[isoquinoline-1,4′-piperidine]-2-yl)ethanone]", "μ and σ1 dual binding": "++"},
      {"smiles": "CC(=O)N1CCc2ccccc2C12CCN(CCOc1ccccc1)CC2", "note": "[Example 20, 1-(1′-(2-phenoxyethyl)-3,4-dihydro-2H-spiro[isoquinoline-1,4′-piperidine]-2-yl)ethanone]", "μ and σ1 dual binding": "++"},
      {"smiles": "CCOCCN1CCC2(CC1)c1ccccc1CCN2C(C)=O", "note": "[Example 24, 1-(1′-(2-ethoxyethyl)-3,4-dihydro-2H-spiro[isoquinoline-1,4′-piperidine]-2-yl)ethanone]", "μ and σ1 dual binding": "++"},
      {"smiles": "CC(=O)N1CCc2ccccc2C12CCN(CCOCC1CC1)CC2", "note": "[Example 30, 1-(1′-(2-(cyclopropylmethoxy)ethyl)-3,4-dihydro-2H-spiro[isoquinoline-1,4′-piperidine]-2-yl)ethanone]", "Ki": "< 500"},
      {"smiles": "CC(=O)N1CCc2ccccc2C12CCN(CCOCC(C)C)CC2", "note": "[Example 31]", "Ki": "< 500"},
      {"smiles": "CC(=O)N1CCc2ccccc2C12CCN(CCOCc1ccccc1)CC2", "note": "[Example 32, 1-(1′-(2-(benzyloxy)ethyl)-3,4-dihydro-2H-spiro[isoquinoline-1,4′-piperidine]-2-yl)ethanone]", "μ and σ1 dual binding": "++"},
      {"smiles": "CC(=O)N1CCc2ccccc2C12CCN(CCC(=O)N(C)c1ccccc1)CC2", "note": "[Example 35, 3-(2-acetyl-3,4-dihydro-2H-spiro[isoquinoline-1,4′-piperidine]-1′-yl)-N-methyl-N-phenylpropanamide]", "μ and σ1 dual binding": "++"},
      {"smiles": "CC(=O)N1CCc2ccccc2C12CCN(CCOc1ccccn1)CC2", "note": "[Example 42, 1-(1′-(2-(Pyridin-2-yloxy)ethyl)-3,4-dihydro-2H-spiro[isoquinoline-1,4′-piperidine]-2-yl)ethanone]", "μ and σ1 dual binding": "++"},
      {"smiles": "CC(=O)N1CCc2ccccc2C12CCN(CCOc1cccnc1)CC2", "note": "[Example 43, 1-(1′-(2-(pyridin-3-yloxy)ethyl)-3,4-dihydro-2H-spiro[isoquinoline-1,4′-piperidine]-2-yl)ethanone]", "μ and σ1 dual binding": "++"},
      {"smiles": "CC(=O)N1CCc2ccccc2C12CCN(CCOc1ccncc1)CC2", "note": "[Example 44, 1-(1′-(2-(pyridin-4-yloxy)ethyl)-3,4-dihydro-2H-spiro[isoquinoline-1,4′-piperidine]-2-yl)ethanone]", "μ and σ1 dual binding": "++"},
      {"smiles": "CS(=O)(=O)N1CCc2ccccc2C12CCN(CCc1ccccc1)CC2", "note": "[Example 53, 2-(Methylsulfonyl)-1′-phenethyl-3,4-dihydro-2H-spiro[isoquinoline-1,4′-piperidine]]", "Ki": "< 100"},
      {"smiles": "CN1CCc2ccccc2C12CCN(CCc1ccccc1)CC2", "note": "[Example 54, 2-methyl-1′-phenethyl-3,4-dihydro-2H-spiro[isoquinoline-1,4′-piperidine]]", "Ki": "< 100"},
      {"smiles": "COc1ccc2c(c1)CCN(C)C21CCN(CCc2ccccc2)CC1", "note": "[Example 55, 6-methoxy-2-methyl-1′-phenethyl-3,4-dihydro-2H-spiro[isoquinoline-1,4′-piperidine]]", "Ki": "< 100"},
      {"smiles": "CCN(CC)C(=O)CN1CCC2(CC1)c1ccccc1CCN2C", "note": "[Example 56, N,N-diethyl-2-(2-methyl-3,4-dihydro-2H-spiro[isoquinoline-1,4′-piperidine]-1′-yl)acetamide]", "Ki": "< 500"},
      {"smiles": "CN1CCc2ccccc2C12CCN(CC(=O)N1CCCOCC1)CC2", "note": "[Example 57, 2-(2-methyl-3,4-dihydro-2H-spiro[isoquinoline-1,4′-piperidine]-1′-yl)-1-(1,4-oxazepan-4-yl)ethanone]", "μ and σ1 dual binding": "++"},
      {"smiles": "CN1CCc2ccccc2C12CCN(CC(=O)N1CCC(F)CC1)CC2", "note": "[Example 58, 1-(4-fluoropiperidin-1-yl)-2-(2-methyl-3,4-dihydro-2H-spiro[isoquinoline-1,4′-piperidine]-1′-yl)ethanone]", "Ki": "< 500"},
      {"smiles": "COC1CCN(C(=O)CN2CCC3(CC2)c2ccccc2CCN3C)CC1", "note": "[Example 60, 1-(4-methoxypiperidin-1-yl)-2-(2-methyl-3,4-dihydro-2H-spiro[isoquinoline-1,4′-piperidine]-1′-yl)ethanone]", "μ and σ1 dual binding": "++"},
      {"smiles": "CN1CCc2ccccc2C12CCN(CC(=O)N1CCC(F)(F)CC1)CC2", "note": "[Example 61, 1-(4,4-difluoropiperidin-1-yl)-2-(2-methyl-3,4-dihydro-2H-spiro[isoquinoline-1,4′-piperidine]-1′-yl)ethanone]", "Ki": "< 500"},
      {"smiles": "CN1CCc2ccccc2C12CCN(CC(=O)N1CCC3(CC1)CC3)CC2", "note": "[Example 62, 2-(2-methyl-3,4-dihydro-2H-spiro[isoquinoline-1,4′-piperidine]-1′-yl)-1-(6-azaspiro[2.5]octan-6-yl)ethanone]", "Ki": "< 100"},
      {"smiles": "CCN1CCc2ccccc2C12CCN(CCc1ccccc1)CC2", "note": "[Example 63, 2-Ethyl-1′-phenethyl-3,4-dihydro-2H-spiro[isoquinoline-1,4′-piperidine]]", "Ki": "< 100"},
      {"smiles": "c1ccc(CCN2CCC3(CC2)c2ccccc2CCN3Cc2nccs2)cc1", "note": "[Example 64, 2-((1′-phenethyl-3,4-dihydro-2H-spiro[isoquinoline-1,4′-piperidine]-2-yl)methyl)thiazole]", "Ki": "< 500"},
      {"smiles": "CN1CCc2ccccc2C12CCN(CCN1CCOCC1)CC2", "note": "[Example 65, 4-(2-(2-Methyl-3,4-dihydro-2H-spiro[isoquinoline-1,4′-piperidine]-1′-yl)ethyl)morpholine]", "Ki": "< 500"},
      {"smiles": "CN1CCc2ccccc2C12CCN(CC1CCCCC1)CC2", "note": "[Example 66, 1′-(cyclohexylmethyl)-2-methyl-3,4-dihydro-2H-spiro[isoquinoline-1,4′-piperidine]]", "Ki": "< 500"},
      {"smiles": "CN1CCc2ccccc2C12CCN(CC1CCOCC1)CC2", "note": "[Example 67, 2-methyl-1′-((tetrahydro-2H-pyran-4-yl)methyl)-3,4-dihydro-2H-spiro[isoquinoline-1,4′-piperidine]]", "μ and σ1 dual binding": "++"},
      {"smiles": "CN(C)C(=O)CCN1CCC2(CC1)c1ccccc1CCN2C", "note": "[Example 68, N,N-dimethyl-3-(2-methyl-3,4-dihydro-2H-spiro[isoquinoline-1,4′-piperidine]-1′-yl)propanamide]", "Ki": "< 500"}
    ]},
    {"target": "human σ1 receptor and human μ-opioid receptor", "test": "Human σ1 receptor radioligand assay and human μ-opioid receptor radioligand assay (μ and σ1 dual binding)", "set-up": "key to μ and σ1 dual binding: +: Both Ki-μ and Ki-σ1>=500 nM; ++: One Ki<500 nM while the other Ki is >=500 nM; +++: Both Ki-μ and Ki-σ1<500 nM; ++++: Both Ki-μ and Ki-σ1<100 nM", "conditions": "combined class for Ki-μ ([3H]-DAMGO, CHO-K1 membranes) and Ki-σ1 ([3H](+)-pentazocine, HEK-293 membranes)", "units": {"Ki": "nM"}, "values": [
      {"smiles": "CC(=O)N1CCc2ccccc2C12CCN(CCN1CCCCC1)CC2", "note": "[Example 14, 1-(1′-(2-(piperidin-1-yl)ethyl)-3,4-dihydro-2H-spiro[isoquinoline-1,4′-piperidine]-2-yl)ethanone]", "Ki": "≥ 500"},
      {"smiles": "CC(=O)N1CCc2ccccc2C12CCN(CCC(=O)N(C)C)CC2", "note": "[Example 22, 3-(2-acetyl-3,4-dihydro-2H-spiro[isoquinoline-1,4′-piperidine]-1′-yl)-N,N-dimethylpropanamide]", "Ki": "≥ 500"},
      {"smiles": "CC(=O)N1CCc2ccccc2C12CCN(CC1CC1)CC2", "note": "[Example 33, 1-(1′-(Cyclopropylmethyl)-3,4-dihydro-2H-spiro[isoquinoline-1,4′-piperidine]-2-yl)ethanone]", "Ki": "≥ 500"},
      {"smiles": "CC(=O)N1CCc2ccccc2C12CCN(CC(=O)N1CCOCC1)CC2", "note": "[Example 34, 2-(2-acetyl-3,4-dihydro-2H-spiro[isoquinoline-1,4′-piperidine]-1′-yl)-1-morpholinoethanone]", "Ki": "≥ 500"},
      {"smiles": "CC(=O)N1CCc2ccccc2C12CCN(CCNC(=O)OC(C)(C)C)CC2", "note": "[Example 37, tert-butyl 2-(2-acetyl-3,4-dihydro-2H-spiro[isoquinoline-1,4′-piperidine]-1′-yl)ethylcarbamate]", "Ki": "≥ 500"},
      {"smiles": "CC(=O)OC(CN1CCC2(CC1)c1ccccc1CCN2C(C)=O)c1ccccc1", "note": "(centres unmarked) [Example 39, 2-(2-Acetyl-3,4-dihydro-2H-spiro[isoquinoline-1,4′-piperidine]-1′-yl)-1-phenylethyl acetate]", "Ki": "≥ 500"},
      {"smiles": "CC(=O)N1CCc2ccccc2C12CCN(CCO)CC2", "note": "[Example 41, 1-(1′-(2-Hydroxyethyl)-3,4-dihydro-2H-spiro[isoquinoline-1,4′-piperidine]-2-yl)ethanone]", "Ki": "≥ 500"},
      {"smiles": "CC(=O)N1CCc2ccccc2C12CCN(CCN(C)C(=O)OC(C)(C)C)CC2", "note": "[Example 46, tert-Butyl 2-(2-acetyl-3,4-dihydro-2H-spiro[isoquinoline-1,4′-piperidine]-1′-yl)ethyl(methyl)carbamate]", "Ki": "≥ 500"},
      {"smiles": "CNCCN1CCC2(CC1)c1ccccc1CCN2C(C)=O", "note": "[Example 47, 1-(1′-(2-(Methylamino)ethyl)-3,4-dihydro-2H-spiro[isoquinoline-1,4′-piperidine]-2-yl)ethanone]", "Ki": "≥ 500"},
      {"smiles": "CC(=O)Oc1ccc2c(c1)CCN(C(C)=O)C21CCN(CCc2ccccc2)CC1", "note": "[Example 49, 2-Acetyl-1′-phenethyl-3,4-dihydro-2H-spiro[isoquinoline-1,4′-piperidine]-6-yl acetate]", "Ki": "≥ 500"},
      {"smiles": "CN1CCc2ccccc2C12CCN(CC(=O)N1CCC(C(C)(C)O)CC1)CC2", "note": "[Example 59, 1-(4-(2-hydroxypropan-2-yl)piperidin-1-yl)-2-(2-methyl-3,4-dihydro-2H-spiro[isoquinoline-1,4′-piperidine]-1′-yl)ethanone]", "Ki": "≥ 500"}
    ]}
  ]
}
